Measured values taken from ChEMBL document CHEMBL1201862, “PubChem BioAssay data set” (2004).
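Compound exposure: 48 hours, 5 concentrations, 96-well plates. Here, GI50 denotes the concentration required for 50% inhibition of growth.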 The source made the active and inactive calls. Rule as the data show it: active = GI50 up to about 1.1 µM and inactive = higher.

Key:
Experiment in all cases: NCI anticancer screen, dose series, 48 h
EKVX = tested on: EKVX
Hs-578T = tested on: Hs-578T
XF498 = tested on: XF498
SK-MEL-2 = tested on: SK-MEL-2
PC-3 = tested on: PC-3
MDA-MB-231 = tested on: MDA-MB-231
DLD-1 = tested on: DLD-1
DMS-273 = tested on: DMS-273
LOX IMVI = tested on: LOX IMVI
NCI/ADR-RES = tested on: NCI/ADR-RES
COLO 205 = tested on: COLO 205
A549 = tested on: A549
DMS-114 = tested on: DMS-114
SNB-78 = tested on: SNB-78
MDA-MB-435 = tested on: MDA-MB-435
MDA-N = tested on: MDA-N
NCI-H460 = tested on: NCI-H460
KM-20L2 = tested on: KM-20L2
OVCAR-5 = tested on: OVCAR-5
OVCAR-8 = tested on: OVCAR-8

Measured: GI50

CCCCCCCCCCCC(=O)OCC(C[As](=O)(O)O)OC(=O)CCCCCCCCCCC (stereo not drawn)
inactive: EKVX 7.74 µM | Hs-578T 4.2 µM | XF498 2.9 µM | SK-MEL-2 3.92 µM | PC-3 3.18 µM | MDA-MB-231 4.54 µM | DLD-1 15.8 µM | DMS-273 2.47 µM | LOX IMVI 4.76 µM | NCI/ADR-RES 21.3 µM | COLO 205 7.67 µM | A549 8.2 µM | DMS-114 1.65 µM | SNB-78 2.82 µM | MDA-MB-435 3.46 µM | MDA-N 4.48 µM | NCI-H460 4.05 µM | KM-20L2 5.66 µM | OVCAR-5 18.1 µM | OVCAR-8 11.7 µM

CN(C)CC1CCCC1=O (stereo not drawn)
inactive: EKVX 1.71 µM | Hs-578T 17.9 µM | SK-MEL-2 5.21 µM | PC-3 8.09 µM | MDA-MB-231 2.64 µM | DMS-273 1.55 µM | LOX IMVI 1.57 µM | NCI/ADR-RES 20.7 µM | A549 24 µM | SNB-78 2.48 µM | MDA-MB-435 4.39 µM | NCI-H460 10.5 µM | KM-20L2 1.67 µM | OVCAR-5 5.42 µM | OVCAR-8 3.62 µM
active: XF498 0.687 µM | DLD-1 0.195 µM | COLO 205 0.56 µM | DMS-114 1.08 µM

COc1c2c(nc3ccccc13)-c1cc3c(c(=O)n1C2)COC(=O)C3(O)CC(=O)N1CCOCC1 (stereo not drawn)
inactive: EKVX 43.2 µM | Hs-578T 12.6 µM | XF498 7.96 µM | SK-MEL-2 26.8 µM | PC-3 21.1 µM | MDA-MB-231 69.7 µM | DLD-1 40.4 µM | LOX IMVI 1.36 µM | COLO 205 27.8 µM | A549 10.5 µM | SNB-78 32.4 µM | MDA-MB-435 18.7 µM | MDA-N 19.5 µM | NCI-H460 1.17 µM | KM-20L2 15.4 µM | OVCAR-5 11.4 µM | OVCAR-8 3.58 µM
active: DMS-273 1.11 µM | DMS-114 0.664 µM
